Here are results for 30 compounds from patent US20260209220A1, “SUBSTITUTED TETRAHYDROPYRROLO-PYRIDINONE COMPOUNDS AND THEIR USE IN TREATING MEDICAL CONDITIONS” (Karuna Therapeutics, Inc., priority 2022, published 2026).

Assay [1] addresses T1, rM4 receptors (Rattus norvegicus, UniProt P08485).
T1 construct: expressed in transfected cells; host or cells: CHO cells
T1 sequence (P08485 1-478): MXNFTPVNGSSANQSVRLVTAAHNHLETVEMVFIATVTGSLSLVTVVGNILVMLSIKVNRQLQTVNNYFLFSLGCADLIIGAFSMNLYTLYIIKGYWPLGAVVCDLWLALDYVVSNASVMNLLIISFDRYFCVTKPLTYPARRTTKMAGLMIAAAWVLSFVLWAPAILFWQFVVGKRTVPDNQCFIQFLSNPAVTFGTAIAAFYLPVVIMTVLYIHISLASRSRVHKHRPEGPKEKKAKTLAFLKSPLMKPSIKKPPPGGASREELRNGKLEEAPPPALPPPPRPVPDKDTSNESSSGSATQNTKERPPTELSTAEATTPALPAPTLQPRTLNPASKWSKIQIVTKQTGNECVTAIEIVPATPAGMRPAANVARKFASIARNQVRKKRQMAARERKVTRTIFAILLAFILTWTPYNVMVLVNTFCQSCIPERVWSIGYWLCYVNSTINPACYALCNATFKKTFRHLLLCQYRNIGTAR
Description: Rat M4 PAM PERK assay (CHO cells, TR-FRET, with EC20 acetylcholine). In kind it is cell-based. On the procedure: (§1) Chinese hamster ovary (CHO) cells expressing either hM4 or rM4 receptors were frozen in assay ready vials (5×10^6 cells/vial) after bulking-up in culture. The day before an assay, vial(s) were thawed and cells seeded in 384 well white proxiplates at 1000/well for hM4 cells and at 2000/well for rM4 cells, in 10 μL of growth media (Hams/F12 with glutamax and 10% FCS) and incubated overnight at 37° C./5% CO2.
(§2) On the following morning, the growth media was removed by ‘flicking out’ over a bin, patting the inverted plate onto tissue, and then replacing with 10 μL of wash media (Hams/F12 with glutamax and 8 mM HEPES, NB: serum free). Then, the wash media was removed in the same way and replaced with 8 μL/well of the serum free media. Plates were then re-incubated for a further 4 hours at 37° C./5% CO2.
(§3) Compounds for testing were solubilized to 10 mM in DMSO and compound addition plates, consisting of ten-point concentration response curves (CRC) in duplicate points (10 μM top concentration, ½ log dilution series), were prepared by acoustic dispensing and the compound management group.
(§4) After the 4-hour incubation in serum free media, a 4 μL aliquot of the 3×compound solution containing an EC20 of acetylcholine (10 nM final concentration) was added to the cell plate using a 384 well plate to plate transfer. Then, the plate lid was replaced, and the cells incubated for 5 mins at 37° C./5% CO2. Following this final incubation, all cellular processes were stopped by the addition of 4 μL/well of lysis and blocking buffer and plates were incubated for 30 minutes at RT on an orbital shaker (gentle setting). Then, a final addition of 4 μL/well of antibody detection mix, containing both the Europium-Cryptate (donor) and d2 (acceptor) tagged detection components, was added followed by a further 2-hour incubation at RT, and then the plate was read using a TR-FRET (time resolved fluorescence resonance energy transfer) based protocol.

Assay [2] has as its target T2, hM4 receptors (Homo sapiens, UniProt P08173).
T2 construct: expressed in transfected cells; host or cells: CHO cells
T2 sequence (P08173 1-479): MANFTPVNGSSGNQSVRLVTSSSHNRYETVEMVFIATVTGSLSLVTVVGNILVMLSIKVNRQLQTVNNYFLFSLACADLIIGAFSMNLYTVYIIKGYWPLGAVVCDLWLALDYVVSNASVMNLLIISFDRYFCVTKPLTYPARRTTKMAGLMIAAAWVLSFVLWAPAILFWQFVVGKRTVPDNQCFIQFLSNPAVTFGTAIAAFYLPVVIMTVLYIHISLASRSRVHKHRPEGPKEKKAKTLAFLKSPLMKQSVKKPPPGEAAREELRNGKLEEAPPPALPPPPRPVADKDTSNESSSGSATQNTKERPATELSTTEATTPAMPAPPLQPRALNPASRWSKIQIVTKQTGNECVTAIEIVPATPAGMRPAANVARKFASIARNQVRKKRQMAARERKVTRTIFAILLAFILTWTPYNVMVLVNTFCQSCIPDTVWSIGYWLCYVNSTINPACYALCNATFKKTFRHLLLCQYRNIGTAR
Description: Human M4 PAM PERK assay (CHO cells, TR-FRET, with EC20 acetylcholine). In kind it is cell-based. As for the experimental part:
as §1, §2, §3, §4

Each structure is given as a SMILES string.

On to `Cc1cc(=O)n(C)c2c1C(C)N(C(=O)CC1CN(c3ccnc(C(F)(F)F)c3)C1)C2` (racemic) [Compound I-113, (±)-1,4,5-Trimethyl-6-(2-(1-(2-(trifluoromethyl)pyridin-4-yl)azetidin-3-yl)acetyl)-1,5,6,7-tetrahydro-2H-pyrrolo[3,4-b]pyridin-2-one], for which the EC50 in assay [1] and in assay [2] was above 1 µM throughout.

`Cc1c2c(n(C)c(=O)c1Cl)CN(C(=O)C(C)C1CN(c3ccnc(C(F)(F)F)c3)C1)C2` (single isomer, unassigned) [Compound I-83, 3-Chloro-1,4-dimethyl-6-(2-(1-(2-(trifluoromethyl)pyridin-4-yl)azetidin-3-yl)propanoyl)-1,5,6,7-tetrahydro-2H-pyrrolo[3,4-b]pyridin-2-one]: the EC50 in assay [1] and in assay [2] was above 1 µM each time.

Take `Cc1cc(=O)n(C)c2c1CN(C(=O)CC1CN(c3ccnc(C(F)(F)F)c3)C1)C2` [Compound I-1, 1,4-Dimethyl-6-(2-(1-(2-(trifluoromethyl)pyridin-4-yl)azetidin-3-yl)acetyl)-1,5,6,7-tetrahydro-2H-pyrrolo[3,4-b]pyridin-2-one]: the EC50 in assay [1] was 0.2 to 1 µM; in assay [2], below 0.05 µM.

With `Cc1cc(=O)n(C)c2c1CN(C(=O)CC1CN(c3ccc(S(C)(=O)=O)cc3)C1)C2` [Compound I-2, 1,4-Dimethyl-6-(2-(1-(4-(methylsulfonyl)phenyl)azetidin-3-yl)acetyl)-1,5,6,7-tetrahydro-2H-pyrrolo[3,4-b]pyridin-2-one], the EC50 in assay [1] was above 1 µM; in assay [2] it was 0.05 to 0.2 µM.

With `Cc1cc(=O)n(C)c2c1CN(C(=O)CC1CN(c3ccc(C(F)(F)F)cc3)C1)C2` [Compound I-5], the values for the EC50 in assay [1] and in assay [2] were above 1 µM and below 0.05 µM, respectively.

As to `Cc1cc(=O)n(C)c2c1CN(C(=O)CC1CN(c3ccncn3)C1)C2` [Compound I-6], the EC50 in assay [1] and in assay [2] was 0.2 to 1 µM each time.

For the compound `Cc1cc(=O)n(C)c2c1CN(C(=O)CC1CN(c3ccccn3)C1)C2` [Compound I-9], the EC50 in assay [1] was 0.2 to 1 µM; in assay [2], below 0.05 µM.

Consider `COc1cncc(N2CC(CC(=O)N3Cc4c(C)cc(=O)n(C)c4C3)C2)c1` [Compound I-15], for which the EC50 in assay [1] is 0.2 to 1 µM; in assay [2] it was below 0.05 µM.

Regarding `Cc1cc(=O)n(C)c2c1CN(C(=O)CC1CN(c3ccc(F)c(F)c3)C1)C2` [Compound I-32], the EC50 in assay [1] was in the range of 0.2 to 1 µM; in assay [2], 0.05 to 0.2 µM.

As for `Cc1cc(=O)n(C)c2c1CN(C(=O)CC1CN(c3cnnc(C4CC4)c3)C1)C2` [Compound I-38, 6-(2-(1-(6-Cyclopropylpyridazin-4-yl)azetidin-3-yl)acetyl)-1,4-dimethyl-1,5,6,7-tetrahydro-2H-pyrrolo[3,4-b]pyridin-2-one], the EC50 in assay [1] lay within 0.2 to 1 µM; in assay [2], 0.05 to 0.2 µM.

As to `Cc1cc(=O)n(C)c2c1CN(C(=O)CC1CN(c3cc(C4CC4)c(C#N)c(C(F)(F)F)c3)C1)C2` [Compound I-40, 2-Cyclopropyl-4-(3-(2-(1,4-dimethyl-2-oxo-1,2,5,7-tetrahydro-6H-pyrrolo[3,4-b]pyridin-6-yl)-2-oxoethyl)azetidin-1-yl)-6-(trifluoromethyl)benzonitrile], the concentration giving a half-maximal response (EC50) in assay [1] and in assay [2] was 0.2 to 1 µM in each case.

Consider `COc1cccc(N2CC(CC(=O)N3Cc4c(C)c(C)c(=O)n(C)c4C3)C2)c1` [Compound I-47], for which the EC50 in assay [1] was 0.2 to 1 µM; in assay [2], 0.05 to 0.2 µM.

Consider `Cc1c2c(n(C)c(=O)c1C)CN(C(=O)CC1CN(c3cccc(F)c3F)C1)C2` [Compound I-48], for which the 50% effective concentration (EC50) in assay [1] is 0.05 to 0.2 µM; in assay [2] it was below 0.05 µM.

With `Cc1c2c(n(C)c(=O)c1C)CN(C(=O)CC1CN(c3ccc(F)c(C(F)(F)F)c3)C1)C2` [Compound I-49], the EC50 in assay [1] and in assay [2] was 0.05 to 0.2 µM throughout.

For `Cc1c2c(n(C)c(=O)c1C)CN(C(=O)CC1CN(c3cnc(C(F)(F)F)cn3)C1)C2` [Compound I-50], the 50% effective concentration (EC50) in assay [1] lay within 0.05 to 0.2 µM; in assay [2], 0.2 to 1 µM.

In the case of `Cc1c2c(n(C)c(=O)c1C)CN(C(=O)CC1CN(c3ccc(OC(F)(F)F)cc3)C1)C2` [Compound I-52], the EC50 in assay [1] and in assay [2] was 0.05 to 0.2 µM throughout.

On to `Cc1c2c(n(C)c(=O)c1C)CN(C(=O)CC1CN(c3ccc(C4CC4)c(F)c3)C1)C2` [Compound I-53], for which the EC50 in assay [1] was 0.05 to 0.2 µM; in assay [2] it was below 0.05 µM.

Take `COc1cc(N2CC(CC(=O)N3Cc4c(C)c(C)c(=O)n(C)c4C3)C2)cc(C(F)(F)F)n1` [Compound I-54]: the EC50 in assay [1] and in assay [2] was 0.2 to 1 µM throughout.

Take `Cc1c2c(n(C)c(=O)c1C)CN(C(=O)CC1CN(c3ccc(CC(C)(C)O)c(F)c3)C1)C2` [Compound I-57]: the results for the EC50 in assay [1] and in assay [2] were 0.05 to 0.2 µM and below 0.05 µM, respectively.

For `Cc1c2c(n(C)c(=O)c1C)CN(C(=O)CC1CN(c3ccc(C4CC4)c(F)c3)C1C)C2` (stereo not drawn) [Compound I-60, 6-(2-(1-(4-Cyclopropyl-3-fluorophenyl)-2-methylazetidin-3-yl)acetyl)-1,3,4-trimethyl-1,5,6,7-tetrahydro-2H-pyrrolo[3,4-b]pyridin-2-one], the EC50 in assay [1] and in assay [2] was below 0.05 µM each time.

For `Cc1c2c(n(C)c(=O)c1Cl)CN(C(=O)CC1CN(c3cccnc3)C1)C2` [Compound I-67], the EC50 in assay [1] was 0.05 to 0.2 µM; in assay [2], below 0.05 µM.

In the case of `Cc1c2c(n(C)c(=O)c1Cl)CN(C(=O)CC1CN(c3cncnc3)C1)C2` [Compound I-69], the EC50 in assay [1] is 0.05 to 0.2 µM; in assay [2] it was below 0.05 µM.

For the compound `Cc1c2c(n(C)c(=O)c1Cl)CN(C(=O)CC1CN(c3ccncn3)C1)C2` [Compound I-70], the EC50 in assay [1] is 0.2 to 1 µM; in assay [2] it was below 0.05 µM.

As for `Cc1c2c(n(C)c(=O)c1Cl)CN(C(=O)CC1CN(c3ccccc3)C1)C2` [Compound I-71], the EC50 was 0.2 to 1 µM in assay [1] and below 0.05 µM in assay [2].

For `Cc1c2c(n(C)c(=O)c1Cl)CN(C(=O)CC1CN(c3cnccn3)C1)C2` [Compound I-72], the results for the EC50 in assay [1] and in assay [2] were 0.05 to 0.2 µM and below 0.05 µM, respectively.

Consider `Cc1c2c(n(C)c(=O)c1Cl)CN(C(=O)CC1CN(c3cccc(C(F)(F)F)c3)C1)C2` [Compound I-73], for which the EC50 in assay [1] was 0.05 to 0.2 µM; in assay [2] it was below 0.05 µM.

In the case of `Cc1c2c(n(C)c(=O)c1Cl)CN(C(=O)CC1CN(c3ccccc3C(F)(F)F)C1)C2` [Compound I-74], the figures for the EC50 in assay [1] and in assay [2] were 0.2 to 1 µM and 0.05 to 0.2 µM, respectively.

On to `COc1cncc(N2CC(CC(=O)N3Cc4c(C)c(Cl)c(=O)n(C)c4C3)C2)c1` [Compound I-75], for which the EC50 was above 1 µM in assay [1] and below 0.05 µM in assay [2].

With `COc1cc(N2CC(CC(=O)N3Cc4c(C)c(Cl)c(=O)n(C)c4C3)C2)ccn1` [Compound I-77], the figures for the EC50 in assay [1] and in assay [2] were 0.2 to 1 µM and below 0.05 µM, respectively.

As to `Cc1c2c(n(C)c(=O)c1Cl)CN(C(=O)CC1CN(c3ccnnc3)C1)C2` [Compound I-81, 3-Chloro-1,4-dimethyl-6-(2-(1-(pyridazin-4-yl)azetidin-3-yl)acetyl)-1,5,6,7-tetrahydro-2H-pyrrolo[3,4-b]pyridin-2-one], the figures for the EC50 in assay [1] and in assay [2] were above 1 µM and below 0.05 µM, respectively.
